Among the data in paper doi:10.1101/108654v1 (biorxiv, 2017) are GI50, CC50 and inhibition values, retold here.

What is called CC50 is the concentration that lowers cell viability or growth by half. Read a high CC50 as better tolerance by the cells. For orientation: inhibition means how much of the control response was suppressed.

The test system of one data set is HepG2. As to the kind of experiment: cells. On the set-up: species or system human cancer cell lines. The following applies: Homo sapiens, HepG2, 48 h, read-out: HepG2.
The test system of another data set is MCF7. Description: cells. As to conditions: Homo sapiens, MCF7, 48 h, read-out: MCF7. On the set-up: species or system human cancer cell lines.
A short description of another data set: in vitro. The following applies: human, mrc5 cells.
A further data set relates to SKOV3. As to the kind of experiment: cells. Also noted: species or system human cancer cell lines. The following applies: Homo sapiens, SK-OV-3, 48 h, read-out: SKOV3.
The test system of the next data set is DU145. As to the kind of experiment: cells. As to conditions: Homo sapiens, DU-145, 48 h, read-out: DU145. On the set-up: species or system human cancer cell lines.
In the next data set the test system is MDA MB-231. Description: cells. Also noted: species or system human cancer cell lines. The following applies: Homo sapiens, MDA-MB-231, 48 h, read-out: MDA MB-231.
Another data set addresses porcine brain tubulin (Sus scrofa, UniProt P02550+P02554). As to the kind of experiment: fluorescence-based tubulin polymerization assay. In kind it is biochemical. The following applies: read-out: % inhibition at 3 μM.

The structures appear in SMILES notation.

Chain of porcine brain tubulin (P02550 whole entry): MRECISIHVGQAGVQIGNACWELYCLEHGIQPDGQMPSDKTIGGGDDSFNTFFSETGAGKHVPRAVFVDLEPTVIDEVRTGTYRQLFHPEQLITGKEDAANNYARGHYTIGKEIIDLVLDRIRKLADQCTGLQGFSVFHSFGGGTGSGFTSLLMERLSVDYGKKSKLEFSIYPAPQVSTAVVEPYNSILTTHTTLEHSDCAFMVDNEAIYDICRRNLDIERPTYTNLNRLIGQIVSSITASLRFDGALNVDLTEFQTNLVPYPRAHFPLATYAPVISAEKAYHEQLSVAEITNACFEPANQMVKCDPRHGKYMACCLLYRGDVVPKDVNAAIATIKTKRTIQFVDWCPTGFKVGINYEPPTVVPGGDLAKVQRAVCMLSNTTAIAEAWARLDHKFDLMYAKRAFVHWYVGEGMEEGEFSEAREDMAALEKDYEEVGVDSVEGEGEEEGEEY
Chain of porcine brain tubulin (P02554 whole entry): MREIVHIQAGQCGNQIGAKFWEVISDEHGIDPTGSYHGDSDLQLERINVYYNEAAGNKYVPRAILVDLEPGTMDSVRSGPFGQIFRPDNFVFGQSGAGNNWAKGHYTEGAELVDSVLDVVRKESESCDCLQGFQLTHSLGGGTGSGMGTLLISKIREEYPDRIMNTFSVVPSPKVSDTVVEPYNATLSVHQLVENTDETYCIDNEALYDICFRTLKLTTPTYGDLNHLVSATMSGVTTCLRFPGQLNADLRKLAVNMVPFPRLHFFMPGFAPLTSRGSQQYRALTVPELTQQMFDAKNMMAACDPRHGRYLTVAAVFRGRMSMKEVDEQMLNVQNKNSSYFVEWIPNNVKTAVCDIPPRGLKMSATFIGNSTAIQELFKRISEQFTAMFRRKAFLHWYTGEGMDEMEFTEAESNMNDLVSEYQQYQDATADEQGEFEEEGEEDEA

In the case of `Clc1ccc2nc(Cl)nc(-c3ccccc3Cl)c2c1` [ATS-1], the GI50 in the data set on HepG2 is greater than 10 µM; in the data set on MCF7, greater than 10 µM; in the data set with SKOV3 it was 0.15 ± 0.05 µM; with DU145 it was greater than 10 µM; in the data set with MDA MB-231 it was greater than 10 µM. The same compound yielded a CC50 at 48 h in the data set “in vitro” of 136 ± 1.63 µM.
For `Clc1ccc2nc(NN=Cc3c(Cl)cccc3Cl)nc(-c3ccccc3)c2c1` [ATS-3], the GI50 is greater than 10 µM in the data set on HepG2; greater than 10 µM in the data set on MCF7; 0.47 ± 0.06 µM in the data set on SKOV3; 2.27 ± 0.37 µM in the data set with DU145; 8.84 ± 0.12 µM with MDA MB-231. The same compound came in with a CC50 at 48 h in “in vitro” of 159 ± 1.06 µM.
`O=[N+]([O-])c1ccc(C=NNc2nc(-c3ccccc3)c3cc(Cl)ccc3n2)o1` [ATS-4]: the GI50 with HepG2 is 1.35 ± 0.45 µM; with MCF7, greater than 10 µM; in the data set with SKOV3, 2.75 ± 0.35 µM; in the data set on DU145, 0.81 ± 0.07 µM; with MDA MB-231 it was greater than 10 µM. The compound also returned a CC50 at 48 h in “in vitro” of 162 ± 1.82 µM.
Consider `Clc1ccc2nc(Nc3c(Cl)cccc3Cl)nc(-c3ccccc3)c2c1` [ATS-7], for which the inhibition at 3 µM at porcine brain tubulin was determined as 59%. Moreover, the GI50 with HepG2 is greater than 10 µM; with MCF7, 0.6 ± 0.07 µM; in the data set on SKOV3, 10.3 ± 0.62 µM; with DU145, greater than 10 µM; with MDA MB-231, greater than 10 µM. In addition, in the data set “in vitro”, half-maximal cytotoxicity (CC50 at 48 h) was put at 141 ± 1.41 µM.
As for `COc1cccc2c1C(=O)c1c(O)c3c(c(O)c1C2=O)C[C@@](O)(C(=O)CO)C[C@@H]3O[C@H]1C[C@H](N)[C@H](O)[C@H](C)O1` [Doxorubicin], the GI50 in the data set with HepG2 was less than 0.1 µM; in the data set on MCF7, less than 0.1 µM; in the data set on SKOV3, 1.17 ± 0.52 µM; in the data set with DU145 it was less than 0.1 µM; in the data set with MDA MB-231, less than 0.1 µM.
Regarding `COC(=O)Nc1nc2ccc(C(=O)c3cccs3)cc2[nH]1` [nocodazole], the GI50 was 7.06 ± 0.54 µM with HepG2; less than 0.1 µM with MCF7; less than 0.1 µM in the data set with SKOV3; 0.17 ± 0.07 µM in the data set on DU145; 2.8 ± 0.51 µM with MDA MB-231. Also, it took 129 ± 1.48 µM to reach half-maximal cytotoxicity in “in vitro” (CC50 at 48 h).
